Results reported in US20240279278A1, “NMU RECEPTOR 2 AGONISTS” (Boehringer Ingelheim International GmbH, priority 2023, published 2024).
Values after ≈ are worked out from the molar mass of the structure shown. Residues, ends and D or L forms follow the SMILES beside them.

Legend:
human NMUR2 receptor [1] = molecular target: T1, human NMUR2 receptor (Homo sapiens, UniProt Q9GZQ4); assay: IP1 Gq HTRF assay, activation of human NMUR2 in human plasma; type: cell-based; design: expressed in transfected cells; host or cells: CHO-K1; settings: CHO-K1 cells expressing human NMUR2, 100% human plasma; read-out: EC50 (hNMUR2) human plasma
T1 sequence (Q9GZQ4 whole entry): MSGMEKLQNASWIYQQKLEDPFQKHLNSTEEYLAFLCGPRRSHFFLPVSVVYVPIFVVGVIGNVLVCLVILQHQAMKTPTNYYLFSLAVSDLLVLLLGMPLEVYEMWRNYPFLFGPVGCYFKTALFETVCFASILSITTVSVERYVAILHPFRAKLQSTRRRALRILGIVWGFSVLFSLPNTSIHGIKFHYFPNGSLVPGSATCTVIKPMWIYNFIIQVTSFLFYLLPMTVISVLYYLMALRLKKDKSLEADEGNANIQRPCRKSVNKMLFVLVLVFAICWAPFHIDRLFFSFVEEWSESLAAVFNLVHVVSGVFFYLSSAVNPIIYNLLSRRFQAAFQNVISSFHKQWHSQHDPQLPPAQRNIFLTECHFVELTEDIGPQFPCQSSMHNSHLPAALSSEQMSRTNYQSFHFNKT
Summary of the method: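 EC50 obtained via 4-parameter sigmoidal regression of HTRF IP-One signal (665 nm/620 nm), which falls as intracellular IP1 rises. Stimulation: 1 h, 37° C, peptides in human plasma plus 50 mM LiCl, 1% DMSO final, on NMUR2-expressing CHO-K1 cells, 8 concentrations.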

human NMUR2 receptor [2] = molecular target: T1, human NMUR2 receptor; assay: IP1 Gq HTRF assay, activation of human NMUR2 in buffer; type: cell-based; design: expressed in transfected cells; host or cells: CHO-K1; settings: CHO-K1 cells expressing human NMUR2, stimulation buffer with 0.1% BSA; read-out: EC50 (hNMUR2) buffer
Summary of the method: (§1)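 IP-One HTRF competition (665/620 nm ratio) read after 1 h agonist exposure at 37 °C in pH 7.4 HEPES/HBSS stimulation buffer containing 50 mM LiCl, 0.1% BSA, 1% DMSO. Cells: CHO-K1 stably expressing human NMUR2 or NMUR1. EC50 by 4-parameter nonlinear regression of 8-point curves.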

physchem = type: physicochemical
Description: Example 6: Solubility Determination
Peptides (as TFA-salts) were weighed out in a filter unit (Mini-UniPrep Syringeless Filter 0.45 μm, Whatman PVDF), and 0.1 M phosphate buffer at pH 6 to 8 was added to achieve 10 mg/mL final peptide concentration. The peptides were dissolved by shaking the filter units horizontally at 350 rpm for 2 hours at room temperature. Samples were then filtered to remove any insoluble particles. Controls were prepared by weighing out the corresponding peptide solid material and dissolving it in an appropriate vehicle (e.g. buffer or DMSO) to a final concentration of 1 mg/mL. Both, the control and sample were analyzed by reversed phase chromatography. The area under the peak of the sample was compared to the control and the solubility was calculated based on that ratio. The pH was measured and recorded for each sample.

human NMUR1 receptor = molecular target: T2, human NMUR1 receptor (Homo sapiens, UniProt Q9HB89); assay: IP1 Gq HTRF assay, activation of human NMUR1 in buffer; type: cell-based; settings: CHO-K1 cells expressing human NMUR1, stimulation buffer with 0.1% BSA; read-out: EC50 (hNMUR1) buffer
T2 construct: expressed in transfected cells; host or cells: CHO-K1
T2 sequence (Q9HB89 1-426): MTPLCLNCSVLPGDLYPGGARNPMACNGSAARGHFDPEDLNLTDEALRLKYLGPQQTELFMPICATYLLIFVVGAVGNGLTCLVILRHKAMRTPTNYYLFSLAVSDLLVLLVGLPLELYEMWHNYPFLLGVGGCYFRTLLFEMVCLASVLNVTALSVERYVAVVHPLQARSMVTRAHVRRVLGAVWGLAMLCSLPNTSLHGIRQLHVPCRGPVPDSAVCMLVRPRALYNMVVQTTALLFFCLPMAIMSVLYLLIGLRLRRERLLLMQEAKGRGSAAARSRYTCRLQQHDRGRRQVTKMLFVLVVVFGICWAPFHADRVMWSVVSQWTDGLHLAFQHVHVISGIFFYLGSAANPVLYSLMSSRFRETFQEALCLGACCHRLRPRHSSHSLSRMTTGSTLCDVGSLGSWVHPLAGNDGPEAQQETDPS
Summary of the method: as §1

Structure (SMILES) | EC50 (human NMUR2 receptor [1]) | EC50 (human NMUR2 receptor [2]) | solubility at 2 h (physchem; pH 7.6) | EC50 (human NMUR1 receptor) | solubility at 2 h (physchem; pH 7.2)
CCCC[C@H](NC(=O)[C@H](CC(C)C)N(C)C(=O)[C@H](Cc1ccccc1)NC(=O)[C@H](Cc1ccc(O)cc1)NC(=O)CN1CCN(CCNC(=O)CN(C)C(=O)CN(C)C(=O)CN(C)C(=O)CN(C)C(=O)CN(C)C(=O)CN(C)C(=O)CC[C@H](NC(=O)CC[C@H](NC(=O)CC[C@H](NC(=O)CCCCCCCCCCCCCCCCC(=O)O)C(=O)O)C(=O)O)C(=O)O)CC1)C(=O)N[C@@H](CCCNC(=N)N)C(=O)N1CCC[C@H]1C(=O)N[C@@H](CCCNC(=N)N)C(=O)NCC(N)=O [Compound 68, C18DA-gGlu3-Sar6-AEPipAc-Tyr-Phe-NMeLeu-Nle-Arg-Pro-Arg-Gly-NH2] (HELM PEPTIDE1{[O=C(O)CCCCCCCCCCCCCCCCC(=O)[*:2]].[gGlu].[gGlu].[gGlu].[Sar].[Sar].[Sar].[Sar].[Sar].[Sar].[O=C(CN1CCN(CCN[*:1])CC1)[*:2]].Y.F.[meL].[Nle].R.P.R.G.[am]}$$$$V2.0) | 9.6 nM | 1.2 nM | 900 µg/mL (≈ 0.389 mM) | – | –
CCCC[C@H](NC(=O)[C@H](CC(C)C)N(C)C(=O)[C@H](Cc1ccccc1)NC(=O)[C@H](Cc1ccc(O)cc1)NC(=O)CN1CCN(CCNC(=O)CN(C)C(=O)CN(C)C(=O)CN(C)C(=O)CN(C)C(=O)CN(C)C(=O)CN(C)C(=O)CN(C)C(=O)CN(C)C(=O)CN(C)C(=O)CC[C@H](NC(=O)CC[C@H](NC(=O)CC[C@H](NC(=O)CCCCCCCCCCCCCCCCC(=O)O)C(=O)O)C(=O)O)C(=O)O)CC1)C(=O)N[C@@H](CCCN)C(=O)N(C)[C@@H](C)C(=O)N[C@@H](CCCNC(=N)N)C(=O)NCC(N)=O [Compound 70, C18DA-gGlu3-Sar9-AEPipAc-Tyr-Phe-NMeLeu-Nle-Orn-NMeAla-Arg-Gly-NH2] (HELM PEPTIDE1{[O=C(O)CCCCCCCCCCCCCCCCC(=O)[*:2]].[gGlu].[gGlu].[gGlu].[Sar].[Sar].[Sar].[Sar].[Sar].[Sar].[Sar].[Sar].[Sar].[O=C(CN1CCN(CCN[*:1])CC1)[*:2]].Y.F.[meL].[Nle].[Orn].[meA].R.G.[am]}$$$$V2.0) | 27.2 nM | 2.5 nM | – | > 1000 nM | 8300 µg/mL (≈ 3.36 mM)
CCCC[C@H](NC(=O)[C@H](CC(C)C)N(C)C(=O)[C@H](Cc1ccccc1)NC(=O)[C@H](Cc1ccc(O)cc1)NC(=O)CN1CCN(CCNC(=O)CN(C)C(=O)CN(C)C(=O)CN(C)C(=O)CN(C)C(=O)CN(C)C(=O)CN(C)C(=O)CN(C)C(=O)CN(C)C(=O)CN(C)C(=O)CC[C@H](NC(=O)CC[C@H](NC(=O)CC[C@H](NC(=O)CCCCCCCCCCCCCCCCC(=O)O)C(=O)O)C(=O)O)C(=O)O)CC1)C(=O)N[C@@H](CCCNC(=N)N)C(=O)N1CCC[C@H]1C(=O)N[C@@H](CCCNC(=N)N)C(=O)NCC(N)=O [Compound 72, C18DA-gGlu3-Sar9-AEPipAc-Tyr-Phe-NMeLeu-Nle-Arg-Pro-Arg-Gly-NH2] (HELM PEPTIDE1{[O=C(O)CCCCCCCCCCCCCCCCC(=O)[*:2]].[gGlu].[gGlu].[gGlu].[Sar].[Sar].[Sar].[Sar].[Sar].[Sar].[Sar].[Sar].[Sar].[O=C(CN1CCN(CCN[*:1])CC1)[*:2]].Y.F.[meL].[Nle].R.P.R.G.[am]}$$$$V2.0) | 10.4 nM | 0.9 nM | – | – | 9600 µg/mL (≈ 3.8 mM)
